Test results reported in the NIST ThermoML archive (doi:10.1016/j.jct.2019.01.028).
± gives the expanded uncertainty stated by the source.

Tests used:
[1] = xn = mol fraction of the nth substance listed; settings: transient hot wire
[2] = transient hot wire

CC(F)(F)F [1,1,1-trifluoroethane] + C=C(F)C(F)(F)F
[1], x1 = 0.5
Settings | thermal conductivity [W/m/K]
265.44 K, 1220 kPa, Liquid | 0.0777 ± 0.0016
284.11 K, 2050 kPa, Liquid | 0.0715 ± 0.0014
285.09 K, 1060 kPa, Liquid | 0.0696 ± 0.0014
307.25 K, 2030 kPa, Liquid | 0.0625 ± 0.0013
307.34 K, 3050 kPa, Liquid | 0.0644 ± 0.0013
324.39 K, 3040 kPa, Liquid | 0.0585 ± 0.0012
334.34 K, 1080 kPa, Gas | 0.01836 ± 0.00039
354.13 K, 1170 kPa, Gas | 0.02059 ± 0.00043
354.52 K, 1730 kPa, Gas | 0.02034 ± 0.00042
373.86 K, 2750 kPa, Gas | 0.02379 ± 0.00049
374.86 K, 1900 kPa, Gas | 0.02277 ± 0.00047
393.8 K, 3090 kPa, Gas | 0.02622 ± 0.00053

[Ar] [argon]
[2], Gas
Settings | thermal conductivity [W/m/K]
311.92 K, 20370 kPa | 0.02811 ± 0.0005
312.12 K, 24160 kPa | 0.03024 ± 0.00054
312.12 K, 31080 kPa | 0.0342 ± 0.00061
312.18 K, 27390 kPa | 0.03235 ± 0.00058
312.2 K, 25850 kPa | 0.03134 ± 0.00056
312.35 K, 27380 kPa | 0.0324 ± 0.00058
312.59 K, 17170 kPa | 0.02649 ± 0.00047
312.61 K, 13790 kPa | 0.02465 ± 0.00043
312.73 K, 10320 kPa | 0.02285 ± 0.0004

FC(F)C(F)(F)F [pentafluoroethane] + C=C(F)C(F)(F)F
[1], x1 = 0.5
Settings | thermal conductivity [W/m/K]
259.84 K, 1110 kPa, Liquid | 0.0717 ± 0.0014
284.9 K, 1150 kPa, Liquid | 0.0674 ± 0.0013
285.15 K, 1880 kPa, Liquid | 0.0686 ± 0.0014
304.07 K, 2060 kPa, Liquid | 0.0644 ± 0.0014
305.21 K, 3030 kPa, Liquid | 0.0595 ± 0.0013
324.75 K, 3030 kPa, Liquid | 0.0529 ± 0.0012
334.55 K, 1340 kPa, Gas | 0.01759 ± 0.00039
354.3 K, 1450 kPa, Gas | 0.01925 ± 0.00042
354.63 K, 1840 kPa, Gas | 0.02057 ± 0.00045
374.24 K, 2810 kPa, Gas | 0.02329 ± 0.00048
374.46 K, 2040 kPa, Gas | 0.02202 ± 0.00046
394.23 K, 3100 kPa, Gas | 0.02512 ± 0.00052

FC(F)C(F)(F)F [pentafluoroethane] + CC(F)F
[1], x1 = 0.5
Settings | thermal conductivity [W/m/K]
264.9 K, 1000 kPa, Liquid | 0.0845 ± 0.0017
273.97 K, 2140 kPa, Liquid | 0.0856 ± 0.0018
284.7 K, 1000 kPa, Liquid | 0.0799 ± 0.0016
294.68 K, 3030 kPa, Liquid | 0.0789 ± 0.0016
294.83 K, 2010 kPa, Liquid | 0.0774 ± 0.0015
314.1 K, 3080 kPa, Liquid | 0.0646 ± 0.0013
335.9 K, 1110 kPa, Gas | 0.0178 ± 0.00038
353.81 K, 1710 kPa, Gas | 0.01953 ± 0.0004
353.92 K, 1220 kPa, Gas | 0.01934 ± 0.0004
374.25 K, 1920 kPa, Gas | 0.0231 ± 0.00047
374.33 K, 2760 kPa, Gas | 0.0237 ± 0.00049
393.94 K, 3110 kPa, Gas | 0.02557 ± 0.00052

Cc1ccccc1 [toluene]
[2], 100 kPa, Liquid
Settings | thermal conductivity [W/m/K]
272.64 K | 0.1372 ± 0.0015
273.45 K | 0.1366 ± 0.0015
295.01 K | 0.1308 ± 0.0014
295.07 K | 0.1307 ± 0.0014
316.82 K | 0.1253 ± 0.0014
318.84 K | 0.1243 ± 0.0013
321.21 K | 0.1237 ± 0.0013
335.27 K | 0.12 ± 0.0013
337.36 K | 0.1192 ± 0.0013
347 K | 0.1175 ± 0.0013

F/C=C/C(F)(F)F [trans-1,3,3,3-tetrafluoropropene] + C=C(F)C(F)(F)F
[1], x1 = 0.5
Settings | thermal conductivity [W/m/K]
274.82 K, 1240 kPa, Liquid | 0.0766 ± 0.0025
294.69 K, 1080 kPa, Liquid | 0.0689 ± 0.0014
303.67 K, 2050 kPa, Liquid | 0.0679 ± 0.0015
303.96 K, 2960 kPa, Liquid | 0.0715 ± 0.0015
323.14 K, 2920 kPa, Liquid | 0.0633 ± 0.0013
324.62 K, 2070 kPa, Liquid | 0.0622 ± 0.0012
355.01 K, 940 kPa, Gas | 0.01929 ± 0.0004
375.04 K, 1740 kPa, Gas | 0.02197 ± 0.00045
375.09 K, 1010 kPa, Gas | 0.02168 ± 0.00045
393.98 K, 1860 kPa, Gas | 0.02321 ± 0.00048
394.38 K, 2520 kPa, Gas | 0.0246 ± 0.00051
414.22 K, 2920 kPa, Gas | 0.02633 ± 0.00053

F/C=C/C(F)(F)F [trans-1,3,3,3-tetrafluoropropene] + CC(F)(F)F
[1], x2 = 0.5
Settings | thermal conductivity [W/m/K]
264.94 K, 910 kPa, Liquid | 0.0772 ± 0.0015
285.99 K, 2120 kPa, Liquid | 0.0752 ± 0.0015
286.02 K, 1020 kPa, Liquid | 0.0742 ± 0.0015
304.35 K, 2020 kPa, Liquid | 0.069 ± 0.0014
304.36 K, 3040 kPa, Liquid | 0.0685 ± 0.0014
324.01 K, 2890 kPa, Liquid | 0.0624 ± 0.0012
345.02 K, 950 kPa, Gas | 0.01913 ± 0.0004
364.82 K, 1040 kPa, Gas | 0.02103 ± 0.00044
364.82 K, 1730 kPa, Gas | 0.02117 ± 0.00044
384.54 K, 1920 kPa, Gas | 0.02317 ± 0.00047
384.6 K, 2540 kPa, Gas | 0.02357 ± 0.00048
404.05 K, 2960 kPa, Gas | 0.02606 ± 0.00053

F/C=C/C(F)(F)F [trans-1,3,3,3-tetrafluoropropene] + FC(F)C(F)(F)F
[1], x2 = 0.5
Settings | thermal conductivity [W/m/K]
262.72 K, 1000 kPa, Liquid | 0.0781 ± 0.0016
285.7 K, 1080 kPa, Liquid | 0.0737 ± 0.0015
285.77 K, 2060 kPa, Liquid | 0.0738 ± 0.0015
304.23 K, 1940 kPa, Liquid | 0.0636 ± 0.0014
304.8 K, 3080 kPa, Liquid | 0.0688 ± 0.0015
324.33 K, 3020 kPa, Liquid | 0.0618 ± 0.0013
333.94 K, 1120 kPa, Gas | 0.01783 ± 0.00038
353.67 K, 1810 kPa, Gas | 0.01927 ± 0.0004
353.84 K, 1230 kPa, Gas | 0.01927 ± 0.0004
373.56 K, 2020 kPa, Gas | 0.02145 ± 0.00046
373.67 K, 3040 kPa, Gas | 0.02479 ± 0.00052
395.41 K, 3040 kPa, Gas | 0.02441 ± 0.00052

F/C=C/C(F)(F)F [trans-1,3,3,3-tetrafluoropropene] + FCC(F)(F)F
[1], x2 = 0.5
Settings | thermal conductivity [W/m/K]
274.68 K, 980 kPa, Liquid | 0.0884 ± 0.0018
305.14 K, 3140 kPa, Liquid | 0.0754 ± 0.0015
305.18 K, 1040 kPa, Liquid | 0.0739 ± 0.0015
305.22 K, 2040 kPa, Liquid | 0.0736 ± 0.0015
324.82 K, 2960 kPa, Liquid | 0.0627 ± 0.0013
326.02 K, 2030 kPa, Liquid | 0.0621 ± 0.0012
344.05 K, 870 kPa, Gas | 0.01922 ± 0.0004
364.05 K, 990 kPa, Gas | 0.02123 ± 0.00044
364.13 K, 2030 kPa, Gas | 0.02192 ± 0.00045
383.85 K, 2230 kPa, Gas | 0.02365 ± 0.00049
384.09 K, 3030 kPa, Gas | 0.02611 ± 0.00054
403.87 K, 3020 kPa, Gas | 0.02684 ± 0.00055

O [water]
[2], 100 kPa, Liquid
Settings | thermal conductivity [W/m/K]
292.8 K | 0.6012 ± 0.0063
295.01 K | 0.605 ± 0.0063
303.13 K | 0.6184 ± 0.0065
303.93 K | 0.6193 ± 0.0065
305.47 K | 0.622 ± 0.0065
314.01 K | 0.6259 ± 0.0066
314.95 K | 0.6275 ± 0.0066
334.75 K | 0.6479 ± 0.0068
336.26 K | 0.6496 ± 0.0068
